Data as given in PubChem BioAssay (NCI).
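Grown in 96-well plates, cells were treated for 48 hours with each compound at five concentrations. Insufficient inhibition: endpoint recorded as highest concentration tested. GI50 = concentration required for 50% inhibition of growth. TGI: total growth inhibition.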

What was measured:
Test in all cases: growth of human tumour cells (NCI), 48 h
[1] = system: 786-0 renal
[2] = system: IGROV1 ovarian
[3] = system: MALME-3M melanoma
[4] = system: NCI-H522 lung
[5] = system: SF-268 CNS
[6] = system: SN12C renal
[7] = system: UO-31 renal
[8] = system: NCI-H460 lung
[9] = system: BT-549 breast
[10] = system: NCI/ADR-RES ovarian

## COC(=O)NC(=Nc1ccc(Oc2ccccc2)cc1NC=O)NC(=O)OC
[1]
  TGI: > 100 µM
[2]
  TGI: > 100 µM
[3]
  TGI: > 100 µM
[4]
  TGI: 0.449 µM
[5]
  TGI: > 100 µM
[6]
  TGI: > 100 µM
[7]
  TGI: 69.6 µM

## COc1ccc2c(c1)[n+]([O-])c(-c1ccc(Br)cc1)c(N)[n+]2[O-]
[1]
  TGI: > 100 µM
[2]
  TGI: > 100 µM
[3]
  TGI: 60.1 µM
[8]
  TGI: > 100 µM
[4]
  TGI: 29.7 µM
[5]
  TGI: > 100 µM
[6]
  TGI: > 100 µM
[7]
  TGI: > 100 µM

## C[C@]12CCC[C@H](O)[C@H]1C[C@H](CO)CC2
[1]
  TGI: > 100 µM
[2]
  TGI: > 100 µM
[3]
  TGI: > 100 µM
[8]
  TGI: > 100 µM
[4]
  TGI: > 100 µM
[5]
  TGI: > 100 µM
[6]
  TGI: > 100 µM
[7]
  TGI: > 100 µM

## C/C=C(/CCC1NCCC2c3ccccc3NC12)[Si](C)(C)C (stereo not given)
[1]
  TGI: 23.7 µM
[2]
  TGI: 25.6 µM
[8]
  TGI: 12.4 µM
[4]
  TGI: 30.2 µM
[5]
  TGI: 23.5 µM
[6]
  TGI: 23.9 µM
[7]
  TGI: 20.2 µM

## NCCCCCCCCCCCn1c2c(c3ccccc3c1=O)C(=O)c1ccccc1-2
[1]
  GI50: 19.9 µM
  TGI: 46.9 µM
[9]
  GI50: 20.3 µM
  TGI: 41.4 µM
[3]
  GI50: 16.7 µM
  TGI: 53.6 µM
[8]
  GI50: 4.26 µM
  TGI: 29.7 µM
[4]
  GI50: 3.39 µM
  TGI: 10.4 µM
[10]
  GI50: 3.2 µM
  TGI: 17.6 µM
[5]
  GI50: 6.05 µM
  TGI: 49.1 µM
[6]
  GI50: 1.98 µM
  TGI: 3.61 µM
[7]
  GI50: 2.01 µM
  TGI: 4.07 µM

## Cc1cc(Cl)ccc1NC(=O)CCCC(=O)C1CCC/C1=N\NC(=O)CC#N (stereo not given)
[1]
  TGI: > 100 µM
[2]
  TGI: > 100 µM
[3]
  TGI: > 100 µM
[8]
  TGI: > 100 µM
[4]
  TGI: > 100 µM
[5]
  TGI: > 100 µM
[6]
  TGI: > 100 µM
[7]
  TGI: > 100 µM

## C1COCCOCCOCCOCCOCCO1.[Cl][Sn]([Cl])([c]1ccccc1)[c]1ccccc1
[1]
  GI50: 2.41 µM
  TGI: 5.51 µM
[2]
  GI50: 11.2 µM
  TGI: 23.7 µM
[3]
  GI50: 1.99 µM
  TGI: 3.82 µM
[8]
  GI50: 15.1 µM
  TGI: 30.5 µM
[4]
  GI50: 0.766 µM
  TGI: 2.05 µM
[5]
  GI50: 2.8 µM
  TGI: 8.65 µM
[6]
  GI50: 7.02 µM
  TGI: 20.4 µM
[7]
  GI50: 14.1 µM
  TGI: 27.2 µM

## CCOC(=O)C1=C(C)N(Cc2ccccc2)C(=O)C1CC#N (stereo not given)
[1]
  TGI: > 100 µM
[2]
  TGI: > 100 µM
[8]
  TGI: > 100 µM
[6]
  TGI: > 100 µM
[7]
  TGI: > 100 µM

## COc1ccc(-c2nc(Nc3ccc(-c4nc5ccccc5[nH]4)cc3)nc(N3CCOCC3)n2)cc1
[1]
  GI50: 1.44 µM
  TGI: 3.23 µM
[3]
  GI50: 2.05 µM
  TGI: 3.95 µM
[8]
  GI50: 2.48 µM
  TGI: 6.51 µM
[4]
  GI50: 2.36 µM
  TGI: 5.85 µM
[10]
  GI50: 3.18 µM
  TGI: 26.7 µM
[5]
  GI50: 2.82 µM
  TGI: 26.5 µM
[6]
  GI50: 3.19 µM
  TGI: 23 µM
[7]
  GI50: 2.16 µM
  TGI: 5.64 µM

## O=C1C(Nc2ccc(Br)cc2)=C(I)C(=O)c2ncccc21
[1]
  GI50: 0.905 µM
  TGI: 2.21 µM
[9]
  GI50: 1.85 µM
  TGI: 5.9 µM
[2]
  GI50: 0.678 µM
  TGI: 1.36 µM
[3]
  GI50: 0.731 µM
  TGI: 1.41 µM
[8]
  GI50: 1.42 µM
  TGI: 5.01 µM
[10]
  GI50: 1.14 µM
  TGI: 3.32 µM
[5]
  GI50: 1.13 µM
  TGI: 4.94 µM
[6]
  GI50: 0.828 µM
  TGI: 1.74 µM
[7]
  GI50: 0.641 µM
  TGI: 1.85 µM

## Cn1cc(-c2csc(-c3cn(CCCCN4CCCCC4)c4ccc(F)cc34)n2)c2cccnc21
[1]
  GI50: 1.65 µM
  TGI: 3.02 µM
[9]
  GI50: 1.67 µM
  TGI: 3.13 µM
[8]
  GI50: 1.9 µM
  TGI: 3.52 µM
[5]
  GI50: 1.68 µM
  TGI: 3.32 µM

## O=S(=O)(c1ccc(Br)cc1)N1CCN(S(=O)(=O)c2ccc(Br)cc2)CC1
[1]
  TGI: > 100 µM
[9]
  TGI: > 100 µM
[2]
  TGI: > 100 µM
[3]
  TGI: > 100 µM
[4]
  TGI: > 100 µM
[10]
  TGI: > 100 µM
[5]
  TGI: > 100 µM
[6]
  TGI: > 100 µM
[7]
  TGI: > 100 µM

## O=c1c2c(c3ccccc3n1-c1ccccc1)NC(=S)NC2c1ccc(Cl)cc1 (stereo not given)
[1]
  GI50: 3.94 µM
  TGI: 24.4 µM
[9]
  GI50: 3.73 µM
  TGI: 26 µM
[2]
  GI50: 4.57 µM
  TGI: 27.2 µM
[8]
  GI50: 1.16 µM
  TGI: 6.47 µM
[10]
  GI50: 10.1 µM
  TGI: > 100 µM
[5]
  GI50: 3.28 µM
  TGI: > 100 µM
[6]
  GI50: 3.83 µM
  TGI: > 100 µM
[7]
  GI50: 3.22 µM
  TGI: 42.7 µM

## CSCC[C@H](NC(=O)[C@H](CC(C)C)NC(=O)[C@@H](Cc1ccccc1)NC(=O)CNC(=O)[C@@H](NC(=O)[C@H](C)NC(=O)[C@H](Cc1c[nH]c2ccccc12)NC(=O)[C@H](CCC(N)=O)NC(=O)[C@H](N)CC(N)=O)C(C)C)C(N)=O
[1]
  TGI: > 12.5 µM
[2]
  TGI: > 12.5 µM
[3]
  TGI: > 12.5 µM
[8]
  TGI: > 12.5 µM
[10]
  TGI: > 12.5 µM
[5]
  TGI: > 12.5 µM
[6]
  TGI: > 12.5 µM

## N#Cc1ccsc1NC(=O)COC(=O)c1cccc(S(=O)(=O)N2CCc3ccccc32)c1
[1]
  GI50: 47.3 µM
  TGI: > 100 µM
[9]
  GI50: 34 µM
  TGI: > 100 µM
[2]
  GI50: 7.84 µM
  TGI: > 100 µM
[3]
  GI50: 75.8 µM
  TGI: > 100 µM
[8]
  GI50: 18.2 µM
  TGI: > 100 µM
[4]
  GI50: 34.8 µM
  TGI: > 100 µM
[10]
  GI50: 27.8 µM
  TGI: > 100 µM
[5]
  GI50: 13.4 µM
  TGI: > 100 µM
[7]
  GI50: 41.2 µM
  TGI: > 100 µM

## NC(=O)c1ncn(CCN2CCN(C(=O)NCCCCCCNC(=O)N3CCN(CCn4cnc(C(N)=O)c4N)CC3)CC2)c1N
[1]
  TGI: > 100 µM
[2]
  TGI: > 100 µM
[3]
  TGI: > 100 µM
[8]
  TGI: > 100 µM
[5]
  TGI: > 100 µM
[6]
  TGI: > 100 µM
[7]
  TGI: > 100 µM

## CN(C)CCC=C1c2ccccc2C(C)(C)c2ccccc21
[1]
  GI50: 12.8 µM
  TGI: 27 µM
[2]
  GI50: 15.9 µM
  TGI: 31.7 µM
[8]
  GI50: 9.23 µM
  TGI: 21.3 µM
[4]
  GI50: 17.9 µM
  TGI: 37.1 µM
[10]
  GI50: 17 µM
  TGI: 34.1 µM
[5]
  GI50: 14.7 µM
  TGI: 27.8 µM
[6]
  GI50: 15.6 µM
  TGI: 34 µM
[7]
  GI50: 4.8 µM
  TGI: 20.7 µM

## O=C(/C=C/c1ccccc1Cl)c1cccc2ccccc12
[1]
  TGI: 17.9 µM
[2]
  TGI: 29.6 µM
[3]
  TGI: 30.1 µM
[8]
  TGI: 19.7 µM
[4]
  TGI: 18.6 µM
[5]
  TGI: 28.4 µM
[6]
  TGI: > 100 µM
[7]
  TGI: 21.3 µM
